In PMC8857485, “Prostate secretory protein 94 inhibits sterol binding and export by the mammalian CAP protein CRISP2 in a calcium-sensitive manner” (The Journal of Biological Chemistry, 2022):
Structures can show the parent of a compound that is named as a salt. Where two headings read alike, the source gives them in different places.

Assays:
[1] = molecular target: T1, Pry1 (Saccharomyces cerevisiae, UniProt P47032); test: Microscale thermophoresis (MST) binding to Pry1; details: absence of PSP94, read-out: Kd, sterol binding by Pry1
T1 construct: made in house; host or cells: E. coli BL21
Text: (§1) To confirm the direct interaction of PSP94 with CRISP3 and to test whether PSP94 would also bind other CAP family members such as yeast Pry1, or CRISP2, we performed in vitro protein binding assay using microscale thermophoresis (MST). Therefore, PSP94 and the CAP family members, Pry1, CRISP2, and CRISP3, were expressed as fusion proteins with a C-terminal polyhistidine tag in Escherichia coli, and the proteins were affinity purified on nickel-NTA agarose beads. The purified CAP proteins were then fluorescently labeled using RED-tris-NTA and incubated with varying concentrations of PSP94. […] PSP94 thus has high binding affinity for all three CAP proteins tested, and it also binds the CAP domain of Pry1 (Pry1^CAP) alone.
(§2) DNA encoding proteins of interest were PCR amplified and cloned into NcoI and XhoI restriction sites of pET22b, which contains a PelB signal sequence to direct the secretion of expressed protein into the periplasmic space. […] Protein concentration was determined by Lowry assay using the Folin reagent and bovine serum albumin as protein standard.
(§3) MST experiments were performed to assess protein–protein, protein–lipid, and protein–calcium interactions using a Monolith NT.115 (Nanotemper Technologies). […] The dissociation constant Kd was obtained by plotting the normalized fluorescence (Fnorm) against the logarithm of ligand concentration. […]

[2] = molecular target: T2, CAP domain of Pry1 (Pry1^CAP) (Saccharomyces cerevisiae, UniProt P47032); test: MST binding to the CAP domain of Pry1
T2 construct: made in house; host or cells: E. coli BL21
Text: as §1, §2, §3

[3] = molecular target: T3, CRISP2 Y99P (Homo sapiens, UniProt P16562, Y99P); test: MST binding to CRISP2 single mutant Y99P; design: species or system mammalian; details: absence of PSP94, read-out: Kd, sterol binding by CRISP2 Y99P
T3 construct: made in house; host or cells: E. coli
Text: This interaction is thus located outside the hydrophobic loop that harbors the sterol-binding CBM. Based on these structural considerations, it is thus not apparent why and how the interaction between PSP94 and CRISP2 would block sterol binding at the CBM. To investigate this question in more detail, we first performed computational docking studies to identify residues in CRISP2 that are critical for the interaction with PSP94. […] Two of these three interacting residues, N97 and L98, are conserved in all three CAP family members tested here, CRISP2, CRISP3, and Pry1 (Fig. 4A). […]
as §3
Quadruple mutant cells lacking the acyl-CoA synthetases FAA1 and FAA4 and the yeast CAP family members PRY1 and PRY3 (faa1∆ faa4∆ pry1∆ pry3∆) expressing different combinations of plasmid-borne copies of PRY1, CRISP2, and or PSP94, or their respective empty vectors (pRS423 or pRS426) were cultivated overnight. The export of fatty acids into the culture medium was then quantified. […]

T2 sequence (P47032 167-281 limits assumed): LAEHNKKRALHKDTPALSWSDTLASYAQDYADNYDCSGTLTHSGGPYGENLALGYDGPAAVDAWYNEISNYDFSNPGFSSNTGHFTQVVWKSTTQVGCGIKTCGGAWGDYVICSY
T3 sequence (P16562 22-243 Y99P): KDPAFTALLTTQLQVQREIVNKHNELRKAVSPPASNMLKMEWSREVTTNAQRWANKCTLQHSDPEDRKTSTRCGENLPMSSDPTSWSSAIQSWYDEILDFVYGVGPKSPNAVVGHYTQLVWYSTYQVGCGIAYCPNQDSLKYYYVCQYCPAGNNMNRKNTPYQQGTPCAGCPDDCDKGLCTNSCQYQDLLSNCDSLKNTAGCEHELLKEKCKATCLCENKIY
T1 sequence (P47032 20-299): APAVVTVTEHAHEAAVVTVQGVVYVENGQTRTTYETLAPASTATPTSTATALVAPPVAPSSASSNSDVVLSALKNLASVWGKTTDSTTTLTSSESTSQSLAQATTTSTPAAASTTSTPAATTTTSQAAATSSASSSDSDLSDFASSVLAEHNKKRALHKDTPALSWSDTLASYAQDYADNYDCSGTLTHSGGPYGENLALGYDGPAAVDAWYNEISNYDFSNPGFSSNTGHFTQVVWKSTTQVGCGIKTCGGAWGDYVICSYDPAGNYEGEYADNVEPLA

## CC(C)CCC[C@@H](C)[C@H]1CC[C@H]2[C@@H]3CC=C4C[C@@H](OS(=O)(=O)O)CC[C@]4(C)[C@H]3CC[C@]12C [cholesterol sulfate]
[1]
  Kd: 3 ± 1.7 µM
[2]; PSP94^F24G preincubated 5 min at 24 °C, read-out: Kd, sterol binding by Pry1^CAP in presence of PSP94^F24G
  Kd: 4140 ± 920 nM
[2]; absence of PSP94, read-out: Kd, sterol binding by Pry1^CAP
  Kd: 900 ± 1900 nM
[3]
  Kd: 2500 ± 900 nM
